Results on 12 molecules are retold here after ChEMBL document CHEMBL1201862, “PubChem BioAssay data set” (2004).

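1) Cells in 96-well plates. 2) Compound, 48 h, 5 concentrations. 3) Linear interpolation between surrounding doses. 4) Unreached endpoint = highest concentration. GI50: concentration for 50% inhibition of growth.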 Activity calls are given as the source filed them. Cut-off read from the data, not from the text of the source: active = GI50 up to about 1.1 µM and inactive = higher.

Some test systems named below: A549; HT-29; Hs-578T; K562; KM12; MDA-N; NCI/ADR-RES; OVCAR-4; OVCAR-5; RXF 393; SK-MEL-28; SK-MEL-5; SN12C; SNB-19; SR; T47D; DU-145; HL-60.
Common to all, as to test: DTP human tumour cell line panel, 48 h

For orientation: GI50 means the concentration giving 50% growth inhibition. Turning to `COc1ccc(N2C(=O)/C(=C\c3ccccc3)SC2c2cc(OC)c(OC)c(OC)c2)cc1` (configuration not stated), the GI50 in the assay on A549 was > 100 µM (inactive); with HT-29, 96.6 µM (inactive); in the assay with Hs-578T it was 84.5 µM (inactive); in the assay on K562, 28.5 µM (inactive); in the assay with KM12 it was 44.3 µM (inactive); with MDA-N it was 16.9 µM (inactive). Moreover, the GI50 was > 100 µM (inactive) in the assay on NCI/ADR-RES; 82.4 µM (inactive) in the assay on OVCAR-4; > 100 µM (inactive) in the assay on OVCAR-5; 31.3 µM (inactive) in the assay with RXF 393; > 100 µM (inactive) in the assay with SK-MEL-28; 48.4 µM (inactive) with SK-MEL-5. Also, the GI50 with SN12C was > 100 µM (inactive); in the assay with SNB-19 it was > 100 µM (inactive); in the assay on SR it was 29.9 µM (inactive); in the assay with T47D, 20.1 µM (inactive).
In the case of `CCOC(=O)c1cc2c(ccc3cc(C(=O)OCC)[nH]c32)[nH]1`, the GI50 in the assay with A549 was 29.7 µM (inactive); with DU-145, 35.2 µM (inactive); in the assay on HL-60, > 10 µM (inactive); with Hs-578T it was 17.2 µM (inactive); in the assay on K562, 97.1 µM (inactive); in the assay on KM12, 95.1 µM (inactive). Moreover, the GI50 in the assay on MDA-N was 51.5 µM (inactive); with OVCAR-4 it was 11.4 µM (inactive); in the assay on OVCAR-5 it was > 100 µM (inactive); in the assay on RXF 393, 15.8 µM (inactive); with SK-MEL-28, 8.36 µM (inactive); in the assay on SK-MEL-5 it was 25.8 µM (inactive). Also, the GI50 with SN12C is 25.9 µM (inactive); with SNB-19, 25.4 µM (inactive); with SR it was 17.5 µM (inactive); in the assay on T47D, 38 µM (inactive).
Take `O=C1c2ccccc2C(=O)N1c1ccc(Cc2ccc(N3C(=O)c4ccccc4C3=O)cc2)cc1`: the GI50 in the assay on A549 is > 100 µM (inactive); in the assay on DU-145 it was > 100 µM (inactive); in the assay with HL-60, < 0.01 µM (active); in the assay with HT-29, > 100 µM (inactive); in the assay on Hs-578T, > 100 µM (inactive); in the assay on K562, 0.853 µM (active). Further, the GI50 in the assay on KM12, in the assay with MDA-N, in the assay with NCI/ADR-RES, in the assay with OVCAR-4, in the assay on OVCAR-5 and with RXF 393 was > 100 µM (inactive) throughout. The GI50 with SK-MEL-28, in the assay with SK-MEL-5, with SN12C, in the assay with SNB-19 and in the assay with T47D was > 100 µM (inactive) in each case.
In the case of `COc1ccc(C2SCC(=O)N2NC(=O)c2ccc(NC(C)=O)cc2)c(OC)c1` (configuration not stated), the GI50 in the assay with A549, with DU-145, with HL-60, in the assay with HT-29, with Hs-578T and with K562 was > 100 µM (inactive) each time. Further, the GI50 with KM12, in the assay on MDA-N, with NCI/ADR-RES, with OVCAR-4, in the assay on OVCAR-5 and in the assay with RXF 393 was > 100 µM (inactive) each time. For the same molecule, the GI50 with SK-MEL-28 is > 100 µM (inactive); with SK-MEL-5 it was > 100 µM (inactive); in the assay with SN12C, > 100 µM (inactive); in the assay on SNB-19, > 100 µM (inactive); in the assay with T47D it was 93.3 µM (inactive).
`O=C(NCCCCCCNCc1cccc2ccccc12)Nc1cccc2ccccc12`: the GI50 with A549, with DU-145, in the assay with HL-60, in the assay on HT-29, in the assay with Hs-578T and with K562 was > 100 µM (inactive) throughout. Moreover, the GI50 in the assay with KM12 is > 100 µM (inactive); with MDA-N, > 100 µM (inactive); with NCI/ADR-RES, > 100 µM (inactive); with OVCAR-4, > 100 µM (inactive); in the assay with OVCAR-5 it was 63.1 µM (inactive); with RXF 393, > 100 µM (inactive). Also, the GI50 in the assay on SK-MEL-28, in the assay on SK-MEL-5, in the assay with SN12C, in the assay with SNB-19 and with T47D was > 100 µM (inactive) in each case.
Turning to `Cc1ccc2c(c1)[n+]([O-])c(N)n[n+]2[O-]`, the GI50 in the assay with A549, in the assay on DU-145, with HL-60, with HT-29, with Hs-578T and with K562 was > 100 µM (inactive) throughout. Also, the GI50 in the assay with KM12, with MDA-N, with NCI/ADR-RES, in the assay with OVCAR-4, with OVCAR-5 and in the assay on SK-MEL-28 was > 100 µM (inactive) throughout. Moreover, the GI50 was 37.6 µM (inactive) in the assay on SK-MEL-5; > 100 µM (inactive) with SN12C; > 100 µM (inactive) with SNB-19; > 100 µM (inactive) in the assay on SR; 93.5 µM (inactive) with T47D.
For the molecule `O=C(N/N=C\c1cccc(O)c1)c1ccncc1`, the GI50 with A549, in the assay on DU-145, in the assay on HT-29, in the assay with Hs-578T, in the assay on K562 and in the assay on KM12 was > 100 µM (inactive) each time. For the same molecule, the GI50 in the assay on MDA-N, in the assay on NCI/ADR-RES, with OVCAR-4, in the assay on OVCAR-5, in the assay on RXF 393 and in the assay with SK-MEL-28 was > 100 µM (inactive) each time. The GI50 with SN12C, in the assay with SNB-19, in the assay on SR and in the assay with T47D was > 100 µM (inactive) in each case.
In the case of `CC1OC2OC3C(OCC(O)C3O)OC(=O)[C@]34CCC(C)(C)CC3C3=CCC5[C@@]6(C)C[C@H](O)[C@H](OC7OC(CO)C(O)C(O)C7OC7OCC(OC(=O)CC(C)(O)CC(=O)OC1C(O)C2O)C(O)C7O)[C@@](C)(CO)C6CC[C@@]5(C)[C@]3(C)CC4` (some centres not stated), the GI50 in the assay with A549 was 2.24 µM (inactive); in the assay with DU-145, 3.97 µM (inactive); in the assay with HL-60 it was 1.82 µM (inactive); with HT-29, 2.73 µM (inactive); in the assay with Hs-578T, 8.34 µM (inactive); with KM12, 2.82 µM (inactive). Further, the GI50 is 4.05 µM (inactive) in the assay with MDA-N; 12.7 µM (inactive) in the assay with NCI/ADR-RES; 2.66 µM (inactive) with OVCAR-5; 1.96 µM (inactive) in the assay with SK-MEL-28; 4.18 µM (inactive) in the assay with SK-MEL-5; 9.53 µM (inactive) in the assay with SN12C. The results for the GI50 with SNB-19, in the assay on SR and in the assay on T47D were 6.22 µM (inactive), 6.35 µM (inactive) and 4.98 µM (inactive), respectively.
On to `C#C/C=C\CCCC/C=C\C#CC#CCCCC#CC#C[C@H](COS(=O)(=O)O)OS(=O)(=O)O`, for which the GI50 with A549, in the assay on DU-145, in the assay on HL-60, in the assay with HT-29, in the assay on Hs-578T and with KM12 was > 100 µM (inactive) each time. Also, the GI50 in the assay with MDA-N, in the assay with NCI/ADR-RES, in the assay with OVCAR-4, in the assay on OVCAR-5, with SK-MEL-28 and in the assay on SK-MEL-5 was > 100 µM (inactive) in each case. The GI50 in the assay with SN12C, with SNB-19, with SR and with T47D was > 100 µM (inactive) in each case.
For `COc1cccc(/C=N/NC(=O)CN(C)C)c1O`, the GI50 with A549, in the assay on DU-145, in the assay with HL-60, in the assay on HT-29, with Hs-578T and with K562 was > 100 µM (inactive) throughout. In addition, the GI50 with KM12, in the assay with MDA-N, with NCI/ADR-RES, in the assay on OVCAR-4, with OVCAR-5 and with RXF 393 was > 100 µM (inactive) in each case. Moreover, the GI50 with SK-MEL-28, with SK-MEL-5, in the assay with SN12C, with SNB-19 and in the assay with T47D was > 100 µM (inactive) each time.
Regarding `Nc1nc(N)c2c(Cl)c(CNc3ccc(C(=O)NC(CC(=O)O)C(=O)O)cc3)ccc2n1` (configuration not stated), the GI50 in the assay with A549 was < 0.01 µM (active); with DU-145 it was < 0.01 µM (active); in the assay with HL-60, < 0.01 µM (active); with HT-29 it was < 0.01 µM (active); with Hs-578T, 22.8 µM (inactive); with K562 it was < 0.01 µM (active). Also, the GI50 was < 0.01 µM (active) with KM12; < 0.01 µM (active) with MDA-N; < 0.01 µM (active) in the assay with NCI/ADR-RES; 3.69 µM (inactive) in the assay with OVCAR-4; < 0.01 µM (active) in the assay with OVCAR-5; < 0.01 µM (active) with SK-MEL-5. Also, the GI50 in the assay with SN12C was < 0.01 µM (active); with SNB-19 it was < 0.01 µM (active); in the assay with SR, < 0.01 µM (active); with T47D it was > 100 µM (inactive).
`N[C@@H]1c2c(Br)sc(Br)c2[C@H](O)[C@@H]1O`: the GI50 with A549, in the assay on DU-145, in the assay on HL-60, in the assay with HT-29, with Hs-578T and in the assay on K562 was > 100 µM (inactive) in each case. Moreover, the GI50 in the assay on KM12, in the assay on MDA-N, with NCI/ADR-RES, in the assay on OVCAR-4, in the assay with OVCAR-5 and in the assay on RXF 393 was > 100 µM (inactive) throughout. Also, the GI50 in the assay with SK-MEL-28, in the assay on SK-MEL-5, in the assay on SN12C, in the assay on SNB-19 and in the assay on T47D was > 100 µM (inactive) in each case.
